# Results as given in patent US20230190707A1, “COMPOSITIONS AND METHODS FOR ENHANCING CANCER IMMUNOTHERAPY” (FRED HUTCHINSON CANCER CENTER, priority 2020, published 2023).
# Like-named read-outs stand apart in the source and are kept apart here.
# What was measured:
# [1] = tested on: donor T cells; assay: CFSE adoptive T cell transfer with in vivo splicing modulator treatment
# Description: Splenic T cells were obtained from B6 or CD45.1 donors by CD5 positive selection (Miltenyi Biotec, Cat. 130-049-301), labeled with CellTrace CFSE (ThermoFisher Cat. C34570) at 10 μM, and adoptively transferred by tail vein injection into lethally irradiated B6, Balb/c, or LP/J recipients, with […] labeled donor T cells transferred per recipient. All recipients were irradiated on day −1 prior to adoptive T cell transfer with 7 Gy as a single fraction and continuously received splicing inhibitor drugs or vehicle control at the indicated doses, from day −1 until day of sacrifice, with the initial dose of drug at least 4 hours after lethal irradiation. Indisulam and MS-023 were solubilized for in vivo administration and animals were treated as above. Pladienolide B (Tocris, Cat. 6070) and GEX1A (Cayman Chemicals, Cat. 25136) were both dissolved in vehicle (10% ethanol and 4% Tween-80 in sterile PBS) and administered i.p., with pladienolide B dosed at 10 mg/kg every other day, and GEX1A dosed at 1.25 mg/kg every four days. For in vivo use, EPZ015666 was dissolved in DMSO and solubilized in 0.5% methylcellulose in water to 20 mg/mL; animals were treated daily with 200 mg/kg by oral gavage.
# [2] = tested on: bone marrow hematopoietic stem and progenitor cells; assay: M3434 methylcellulose colony assay; format: cell-based, mouse
# Description: 25,000 red blood cell-lysed bone marrow mononuclear cells from C57BL/6 mice were plated in duplicates or triplicates in each well of a non-tissue-culture treated 6 well plate with M3434 methylcellulose media in the presence of splicing drugs at the indicated concentrations as per manufacturer's instructions (StemCell Technologies, Cat. 03434) and incubated for seven days prior to quantification of colonies by manual microscopy.
# [3] = tested on: CD5^+ splenic T cells; assay: Anti-CD3/CD28 T cell activation and proliferation (CFSE); format: cell-based, mouse; conditions: three days of continuous drug exposure
# Description: Cell lines were grown with half-log10 concentrations of the indicated drug in 4 to 8 technical replicates under standard conditions until the control condition (DMSO or vehicle) was confluent by microscopy. For tumor cell lines, viable cells were quantified via the CellTiter-Glo® assay (Promega Cat. G7573) as per manufacturer instructions. For the ex vivo proliferation of T cells, viable cells were instead quantified via flow cytometry using counting beads. The percentage or number of viable cells with drug treatment was calculated relative to DMSO control (as 100%). […] For absolute cell number, Annexin V+, CD25+, and PD1+ flow cytometry data presented in Figure S4, dose-response models and IC50 values were computed using the R language's dre package (Ritz, C., et al. (2015). Dose-Response Analysis Using R. PLoS One 10, e0146021).
# (§1) Plates were coated with 10 μg/mL anti-CD3 (clone 145-2C11, Biolegend Cat. 100302) and 2 μg/mL anti-CD28 (clone 37.51, Biolegend Cat. 102102) in PBS overnight at 4° C. and washed twice with cold PBS prior to use. CFSE-labeled CD5-selected splenic T cells from naïve C57BL/6J mice were obtained identically as for adoptive cell transfer, and 5×10^4 cells incubated with coated plates in the presence of splicing inhibitor drugs at the indicated concentrations, followed by analysis by standard flow cytometry on day 3. Of note, for RNA-seq analyses, T cells were not labeled with CFSE, and underwent activation for 4 days (96 hours) in the presence of various splicing modulator drugs to harmonize experimental conditions with RNA-seq analyses of tumors treated with splicing inhibitors. For the RNA-seq experiments only, T cells in all conditions were also incubated with IL-2 at 50 U/mL to maximize viability and yield.
# [4] = tested on: T cells stimulated with anti-CD3 and CD28 antibodies; assay: Gene expression program of activated T cells (RNA-seq); format: cell-based, mouse; conditions: ex vivo anti-CD3 and CD28 stimulation in presence of drug
# Description: as §1
# Bulk lung and colon were homogenized using a Qiagen TissueRuptor. For all tissues and cell types, RNA was extracted using an RNeasy kit (Qiagen, Frederick, Md.) and quantified using a NanoDrop 8000 (ThermoFisher Scientific). A minimum of 500 ng of high-quality RNA (as determined by Agilent Bioanalyzer) per sample or replicate was used for library preparation. Poly(A)-selected, strand-specific (dUTP method) Illumina libraries were prepared with a modified TruSeq protocol and sequenced on the Illumina HiSeq 2000 (˜100M 2×101 bp paired-end reads per sample or replicate).
Molecule,"in vivo T cell proliferation or activation in response to alloantigen ([1]; mouse, in vivo)",hematopoiesis (colony formation) [2],"IC50 values, T cell proliferation following stimulation (in words) [3]",genes normally upregulated upon T cell activation [4],"in vivo T cell proliferation or activation in response to alloantigen ([1]; CD45.1 T cells into irradiated Balb/c or LP/J recipients, daily treatment)","hematopoiesis (colony formation) ([2]; micromolar doses, pladienolide B at nanomolar concentrations)"
O=C(NC[C@H](O)CN1CCc2ccccc2C1)c1cc(NC2COC2)ncn1 [EPZ015666],minimal impairment,suppressed hematopoiesis,,,,
"CO[C@H]([C@@H](C)[C@H]1O[C@]1(C)C[C@H](C)/C=C/C=C(\C)[C@H]1O[C@@H](CC(=O)O)CC[C@@H]1C)[C@@H](C)O [GEX1A, herboxidiene]",,,low nanomolar range,,,
pladienolide B,,,low nanomolar range,markedly attenuated,markedly suppressed T cell proliferation,even more profoundly suppressed hematopoiesis
